Experimental findings from patent US10913738B2 (BRISTOL-MYERS SQUIBB COMPANY, priority 2017, dated 2021) are described below.

Experiment [1] relates to MLKL phosphorylation in HT29-L23 human colorectal adenocarcinoma cells. The experiment in a line: MLKL Phosphorylation High-Content Assay. It counts as cell-based. The note with it: Homo sapiens. The procedure, abridged:
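IC50 and Ymax obtained by 4-parameter logistic fitting of MLKL phosphorylation, measured as mean circ-ring average intensity ratio from high-content images. Staining used an anti-phospho-S358 MLKL antibody overnight at 4° C., following six-hour cell incubation at 37° C.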

For experiment [2], the target named is T1, His-GST-TVMV-hRIPK1(1-324) (Homo sapiens, UniProt Q13546).
T1 construct: The coding region of human RIPK1(1-324) flanked by NdeI site at 5′ end; made in house; host or cells: Spodoptera frugiperda (Sf9) insect cells, baculovirus
T1 sequence (Q13546 1-324): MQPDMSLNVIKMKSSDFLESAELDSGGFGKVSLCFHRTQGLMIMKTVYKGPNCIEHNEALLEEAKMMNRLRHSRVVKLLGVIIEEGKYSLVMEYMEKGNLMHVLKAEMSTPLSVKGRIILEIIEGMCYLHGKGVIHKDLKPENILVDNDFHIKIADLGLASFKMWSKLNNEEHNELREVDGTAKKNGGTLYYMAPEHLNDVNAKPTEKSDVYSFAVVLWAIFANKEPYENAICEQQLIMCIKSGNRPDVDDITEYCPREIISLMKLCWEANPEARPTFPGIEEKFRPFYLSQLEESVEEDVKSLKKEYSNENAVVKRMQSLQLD
Nature of the experiment: RIPK1 HTRF Binding Assay. On the technique in general: In TR-FRET formats the signal depends on donor and acceptor labels being close together.

The mark [3] stands for this setting: x marks IC50 class <20 nM, read-out: pMLKL cell activity <20 nM.
Setting [4] is: x marks IC50 class <20 nM, read-out: RIPK1 HTRF binding <20 nM.
The mark [5] stands for this setting: x marks IC50 class >200 nM, read-out: pMLKL cell activity >200 nM.
The mark [6] stands for this setting: x marks IC50 class 20-200 nM, read-out: RIPK1 HTRF binding 20-200 nM.
[7] abbreviates: x marks IC50 class 20-200 nM, read-out: pMLKL cell activity 20-200 nM.

Structures are written as SMILES. Read-outs that look alike come from different tables or passages of the source. A value given as a limit tells only on which side of the number the result lay.

As to `Cc1nc(C)c(-c2ccn3nc(N)nc3c2)cc1C(=O)NCc1cc(F)ccc1OCC1CCCC1` [Example 190, 5-{2-amino-[1,2,4]triazolo[1,5-a]pyridin-7-yl}-N-{[2-(cyclopentylmethoxy)-5-fluorophenyl]methyl}-2,6-dimethylpyridine-3-carboxamide], the IC50 in experiment [1] (setting [3]) and in experiment [2] (setting [4]) was below 20 nM in each case.
With `[2H]C([2H])(NC(=O)c1cc(-c2ccn3nc(N)nc3c2)c(C)nc1C)c1cc(OC(F)(F)F)ccc1F` [Example 191], the IC50 in experiment [1] (setting [3]) and in experiment [2] (setting [4]) was below 20 nM each time.
Turning to `Cc1nc(C)c(-c2ccn3nc(N)nc3c2)cc1C(=O)NCc1cc(C(F)(F)F)ccc1F` [Example 192, 5-{2-amino-[1,2,4]triazolo[1,5-a]pyridin-7-yl}-N-{[2-fluoro-5-(trifluoromethyl)phenyl]methyl}-2,6-dimethylpyridine-3-carboxamide], the IC50 in experiment [1] (setting [3]) and in experiment [2] (setting [4]) was below 20 nM in each case.
As to `COc1nc(C)c(-c2ccn3nc(N)nc3c2)cc1C(=O)NCCc1ccccc1OC(F)(F)F` [Example 194, 5-{2-amino-[1,2,4]triazolo[1,5-a]pyridin-7-yl}-2-methoxy-6-methyl-N-{2-[2-(trifluoromethoxy)phenyl]ethyl}pyridine-3-carboxamide], the results for the IC50 in experiment [1] (setting [5]) and in experiment [2] (setting [6]) were above 200 nM and 20 to 200 nM, respectively.
Turning to `COc1nc(C)c(-c2ccn3nc(N)nc3c2)cc1C(=O)NCc1ccccc1OC1CCOCC1` [Example 195, 5-{2-amino-[1,2,4]triazolo[1,5-a]pyridin-7-yl}-2-methoxy-6-methyl-N-{[2-(oxan-4-yloxy)phenyl]methyl}pyridine-3-carboxamide], the IC50 in experiment [1] (setting [3]) and in experiment [2] (setting [4]) was below 20 nM throughout.
Turning to `COc1nc(C)c(-c2ccn3nc(N)nc3c2)cc1C(=O)NCc1cc(F)cc(C(F)(F)F)c1` [Example 196, 5-{2-amino-[1,2,4]triazolo[1,5-a]pyridin-7-yl}-N-{[3-fluoro-5-(trifluoromethyl)phenyl]methyl}-2-methoxy-6-methylpyridine-3-carboxamide], the IC50 in experiment [1] (setting [5]) was above 200 nM; in experiment [2] (setting [6]) it was 20 to 200 nM.
Turning to `COc1nc(C)c(-c2ccn3nc(N)nc3c2)cc1C(=O)NCc1cc(C(F)(F)F)ccc1F` [Example 197, 5-{2-amino-[1,2,4]triazolo[1,5-a]pyridin-7-yl}-N-{[2-fluoro-5-(trifluoromethyl)phenyl]methyl}-2-methoxy-6-methylpyridine-3-carboxamide], the IC50 in experiment [1] (setting [7]) is 20 to 200 nM; in experiment [2] (setting [4]), below 20 nM.
`COc1nc(C)c(-c2ccn3nc(N)nc3c2)cc1C(=O)NCCc1cccc(OC(F)(F)F)c1` [Example 198, 5-{2-amino-[1,2,4]triazolo[1,5-a]pyridin-7-yl}-2-methoxy-6-methyl-N-{2-[3-(trifluoromethoxy)phenyl]ethyl}pyridine-3-carboxamide]: the IC50 in experiment [1] (setting [5]) is above 200 nM; in experiment [2] (setting [6]), 20 to 200 nM.
In the case of `COc1nc(C)c(-c2ccn3nc(N)nc3c2)cc1C(=O)NCc1cccc(C(F)(F)F)c1` [Example 199, 5-{2-amino-[1,2,4]triazolo[1,5-a]pyridin-7-yl}-2-methoxy-6-methyl-N-{[3-(trifluoromethyl)phenyl]methyl}pyridine-3-carboxamide], the IC50 in experiment [1] (setting [5]) was above 200 nM; in experiment [2] (setting [6]), 20 to 200 nM.
Turning to `COc1nc(C)c(-c2ccn3nc(N)nc3c2)cc1C(=O)NCc1cccc(OCC2CC2)c1` [Example 200, 5-{2-amino-[1,2,4]triazolo[1,5-a]pyridin-7-yl}-N-{[3-(cyclopropylmethoxy)phenyl]methyl}-2-methoxy-6-methylpyridine-3-carboxamide], the IC50 in experiment [1] (setting [7]) and in experiment [2] (setting [6]) was 20 to 200 nM in each case.
Consider `COc1nc(C)c(-c2ccn3nc(N)nc3c2)cc1C(=O)NCc1cc(OC(F)(F)F)ccc1F` [Example 201, 5-{2-amino-[1,2,4]triazolo[1,5-a]pyridin-7-yl}-N-{[2-fluoro-5-(trifluoromethoxy)phenyl]methyl}-2-methoxy-6-methylpyridine-3-carboxamide], for which the figures for the IC50 in experiment [1] (setting [7]) and in experiment [2] (setting [4]) were 20 to 200 nM and below 20 nM, respectively.
The like results for `COc1nc(C)c(-c2ccn3nc(N)nc3c2)cc1C(=O)NCc1c(F)cc(F)cc1OCC1CCCC1` [Example 202, 5-{2-amino-[1,2,4]triazolo[1,5-a]pyridin-7-yl}-N-{[2-(cyclopentylmethoxy)-4,6-difluorophenyl]methyl}-2-methoxy-6-methylpyridine-3-carboxamide] were, in that order, 20 to 200 nM and below 20 nM.
The like results for `COc1nc(C)c(-c2ccn3nc(N)nc3c2)cc1C(=O)NCc1ncccc1OCC1CCCC1` [Example 203, 5-{2-amino-[1,2,4]triazolo[1,5-a]pyridine-7-yl}-N-{[3-(cyclopentylmethoxy)pyridin-2-yl]methyl}-2-methoxy-6-methylpyridine-3-carboxamide] were, in that order, 20 to 200 nM and below 20 nM.
Take `COc1nc(C)c(-c2ccn3nc(N)nc3c2)cc1C(=O)NCc1cccc(OC(F)F)c1` [Example 204, 5-{2-amino-[1,2,4]triazolo[1,5-a]pyridin-7-yl}-N-{[3-(difluoromethoxy)phenyl]methyl}-2-methoxy-6-methylpyridine-3-carboxamide]: the IC50 in experiment [1] (setting [5]) was above 200 nM; in experiment [2] (setting [6]) it was 20 to 200 nM.
Consider `COc1nc(C)c(-c2ccn3nc(N)nc3c2)cc1C(=O)NC(C)c1ccccc1OC(F)(F)F` (stereo not drawn) [Example 205, 5-{2-amino-[1,2,4]triazolo[1,5-a]pyridin-7-yl}-2-methoxy-6-methyl-N-{1-[2-(trifluoromethoxy)phenyl]ethyl}pyridine-3-carboxamide], for which the IC50 in experiment [1] (setting [3]) and in experiment [2] (setting [4]) was below 20 nM each time.
For `COc1nc(C)c(-c2ccn3nc(N)nc3c2)cc1C(=O)NCc1cc(F)ccc1OCC1CCCC1` [Example 206, 5-{2-amino-[1,2,4]triazolo[1,5-a]pyridin-7-yl}-N-{[2-(cyclopentylmethoxy)-5-fluorophenyl]methyl}-2-methoxy-6-methylpyridine-3-carboxamide], the IC50 is 20 to 200 nM in experiment [1] (setting [7]) and below 20 nM in experiment [2] (setting [4]).
For `COc1nc(C)c(-c2ccn3nc(N)nc3c2)cc1C(=O)NCc1ccccc1OCC1CCCC1` [Example 207, 5-{2-amino-[1,2,4]triazolo[1,5-a]pyridin-7-yl}-N-{[2-(cyclopentylmethoxy)phenyl]methyl}-2-methoxy-6-methylpyridine-3-carboxamide], the IC50 in experiment [1] (setting [3]) and in experiment [2] (setting [4]) was below 20 nM in each case.
Consider `COc1nc(C)c(-c2ccn3nc(N)nc3c2)cc1C(=O)NCc1cc(F)cc(F)c1OCC1CCCC1` [Example 208, 5-{2-amino-[1,2,4]triazolo[1,5-a]pyridin-7-yl}-N-{[2-(cyclopentylmethoxy)-3,5-difluorophenyl]methyl}-2-methoxy-6-methylpyridine-3-carboxamide], for which the IC50 in experiment [1] (setting [7]) is 20 to 200 nM; in experiment [2] (setting [4]) it was below 20 nM.
The like results for `COc1nc(C)c(-c2ccn3nc(N)nc3c2)cc1C(=O)NCc1cccnc1OCC1CCC1` [Example 209, 5-{2-amino-[1,2,4]triazolo[1,5-a]pyridin-7-yl}-N-{[2-(cyclobutylmethoxy)pyridin-3-yl]methyl}-2-methoxy-6-methylpyridine-3-carboxamide] were, in that order, 20 to 200 nM and below 20 nM.
`COc1nc(C)c(-c2ccn3nc(N)nc3c2)cc1C(=O)NCc1cccc(OC(F)(F)F)c1` [Example 210, 5-{2-amino-[1,2,4]triazolo[1,5-a]pyridin-7-yl}-2-methoxy-6-methyl-N-{[3-(trifluoromethoxy)phenyl]methyl}pyridine-3-carboxamide]: the IC50 is 20 to 200 nM in experiment [1] (setting [7]) and below 20 nM in experiment [2] (setting [4]).
Regarding `COc1nc(C)c(-c2ccn3nc(N)nc3c2)cc1C(=O)NCc1ccccc1OC(F)(F)F` [Example 211, 5-{2-amino-[1,2,4]triazolo[1,5-a]pyridin-7-yl}-2-methoxy-6-methyl-N-{[2-(trifluoromethoxy)phenyl]methyl}pyridine-3-carboxamide], the figures for the IC50 in experiment [1] (setting [7]) and in experiment [2] (setting [4]) were 20 to 200 nM and below 20 nM, respectively.
`COc1nc(C)c(-c2ccn3nc(N)nc3c2)cc1C(=O)NCc1ccccc1OC(C)C` [Example 212, 5-{2-amino-[1,2,4]triazolo[1,5-a]pyridin-7-yl}-2-methoxy-6-methyl-N-{[2-(propan-2-yloxy)phenyl]methyl}pyridine-3-carboxamide]: the IC50 in experiment [1] (setting [3]) and in experiment [2] (setting [4]) was below 20 nM throughout.
As for `COc1nc(C)c(-c2ccn3nc(N)nc3c2)cc1C(=O)NCc1ncccc1OC1CCCC1` [Example 213, 5-{2-amino-[1,2,4]triazolo[1,5-a]pyridin-7-yl}-N-{[3-(cyclopentyloxy)pyridin-2-yl]methyl}-2-methoxy-6-methylpyridine-3-carboxamide], the IC50 in experiment [1] (setting [3]) and in experiment [2] (setting [4]) was below 20 nM each time.
As to `COc1nc(C)c(-c2ccn3nc(N)nc3c2)cc1C(=O)NCc1c(F)cccc1OCC1CCC1` [Example 214, 5-{2-amino-[1,2,4]triazolo[1,5-a]pyridin-7-yl}-N-{[2-(cyclobutylmethoxy)-6-fluorophenyl]methyl}-2-methoxy-6-methylpyridine-3-carboxamide], the IC50 in experiment [1] (setting [3]) and in experiment [2] (setting [4]) was below 20 nM each time.
